Data reported in ChEMBL document CHEMBL1133834, “Design and synthesis of Pfmrk inhibitors as potential antimalarial agents” (Bioorg Med Chem Lett, 2001).

Biological target: T1, Protein kinase Pfmrk (Plasmodium falciparum, UniProt P90584)
T1 sequence (P90584 whole entry): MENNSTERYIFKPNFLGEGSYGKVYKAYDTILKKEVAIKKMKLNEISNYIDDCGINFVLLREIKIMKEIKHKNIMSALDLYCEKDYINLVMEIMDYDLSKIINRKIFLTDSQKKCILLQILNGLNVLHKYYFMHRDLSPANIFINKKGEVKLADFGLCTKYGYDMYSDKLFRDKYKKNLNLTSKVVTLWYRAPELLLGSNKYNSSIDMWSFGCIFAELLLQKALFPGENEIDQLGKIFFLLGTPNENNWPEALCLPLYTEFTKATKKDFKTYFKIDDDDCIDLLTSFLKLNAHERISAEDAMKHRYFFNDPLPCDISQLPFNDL
Experiment: Inhibition of Plasmodium falciparum cyclin dependent protein kinase (No inhibition); call rule not given here

For Oc1nc2ccccc2c2oc3ccccc3c12, the IC50 was “Not Active”.
In the case of Oc1[nH]c2ccccc2c2nc3ccccc3c1-2, the IC50 is reported as “Not Active”.

Biological target: T1, Protein kinase Pfmrk
Experiment: Inhibition of Plasmodium falciparum cyclin dependent protein kinase (Pfmrk)

Compared with Oc1ccc2nc3oc4ccccc4c3c(O)c2c1, Oc1ccc2nc(O)c3c4ccccc4oc3c2c1 is 2.9-fold higher in IC50: 187 µM for the first, 539 µM for the second. The first is the more potent here.

Oc1c2ccccc2nc2oc3ccccc3c12 and O=C(O)COc1cccc(-c2cc3ccccc3nc2O)c1 cannot be ordered by IC50: less than 371 µM for the first, 102 µM for the second.

OCCOc1cccc(-c2cc3ccccc3nc2O)c1 gave an IC50 of 18 µM.
